# Experimental data reported in patent US9895370B2, “Pharmaceutical composition for preventing or treating of cirrhosis of liver comprising G protein coupled receptor 119 ligand as an active ingredient” (DONGGUK UNIVERSITY INDUSTRY—ACADEMIC COOPERATION FOUNDATION, priority 2015, dated 2018).
# Columns and labels:
# [1] = tested on: C57BL/6 mice with liver fibrosis induced by carbon tetrachloride; test: carbon tetrachloride (CCl4)-induced liver fibrosis animal model; assay type: in vivo, mouse; conditions: for ALT / AST / D-BIL / T-BIL: blood
# Description: 6-week-old male C57BL/6J mice (Joongang laboratory animal, Seoul) were acclimated in a laboratory environment for 1 week with solid feed, and randomly arranged in control groups and experimental groups according to randomized block design. Then, carbon tetrachloride (1 ml/kg) was administered to 6-week-old male C57BL/6 mice (Joongang laboratory animal, Seoul) twice a week for three weeks to induce liver fibrosis, and a GPR119 ligand (10 mg/kg) suspended in 40% PEG400 was orally administered thereto once a day for five days per week. For liver fibrosis models induced by dimethylnitrosamine (DMN), DMN (10 mg/kg) was administered to mice three times a week to induce liver fibrosis. As the control group, a vehicle-treated group was used. After termination of the experiment, the laboratory animals were fasted for 12 hours or more, and anesthetized with Zoletil to obtain blood and the liver, and the liver was washed with 0.1 M phosphate buffered saline (PBS; pH 7.4) and weighed. The blood obtained from the abdominal aorta was centrifuged in an SST tube at 3000×RPM for 20 minutes to isolate the serum.
# For the above-mentioned laboratory animals, serum alanine transaminase (ALT), aspartate transaminase (AST), total bilirubin (T-BIL) and direct bilirubin (D-BIL) were analyzed using an automated hematology analyzer, Spectrum [(Abbott Laboratories, Abbott Park, Ill.)].
# The liver samples obtained as described above were prepared into sections, and the tissue section was fixed with 10% buffered neutral formalin and embedded in paraffin. Afterward, the resulting section was sliced to a 4-μm thickness, and put on a slide to fix a specimen, stained with sirius red, and observed using an optical microscope.
# A predetermined amount of liver tissue was homogenized in a mortar with liquid nitrogen and a lysis buffer, and the resulting tissue solution was transferred into a new tube and then vortexed. The tissue solution was centrifuged at 14,000 rpm and 4° C. for 20 minutes, and the intermediate layer was extracted to quantify a protein by a Bradford method. 30 μg of proteins were analyzed by electrophoresis using an SDS polyacrylamide gel, and the change of protein expression was analyzed by western blot.
# To examine improvement of liver fibrosis by the GPR119 ligand, in an animal model having liver fibrosis induced by carbon tetrachloride (CCl4), an effect of the GPR119 ligand on inhibiting liver fibrosis was observed.
# First, 1 ml/kg of carbon tetrachloride was intraperitoneally administered twice a week, and also orally administered with the GPR119 ligand (MBX-2982) at doses of 20 and 40 mg/kg, respectively, once a day for 5 days a week. Three weeks later, liver tissue was extracted, subjected to sirius red staining for confirming collagen production and immunohistochemical staining for confirming expression of a HSC activation marker, that is, α-SMA, and then compared with a control group and a carbon tetrachloride only-treated group.
# Smad3 and p300 = test: Smad3-p300 interaction, Smad3 acetylation and AMPK-p300 binding in LX-2 (immunoprecipitation); assay type: cell-based, human
# Description: A human HSC line (LX-2, Milipore, U.S.A.) was plated in a 6-well plate, and grown to confluency in DMEM supplemented with 1% penicillin-streptomycin (Hyclone, U.S.A.) and 2% fetal bovine serum (Hyclone, U.S.A.) at 37° C. in a 5% CO2 incubator. For a further experiment, the confluent HSC line was incubated in an FBS-free medium, instead of the 2% FBS-added medium.
# Total fraction protein was reacted with corresponding antibodies at 4° C. for 12 hours or more. An antigen-antibody conjugate was reacted with protein G-agarose at 4° C. for 2 hours to precipitate, and then reacted with 2× Laemmli buffer. The extracted protein was observed by an immunochemical method.
# According to existing reports, AMPK activation in HSCs inhibits the interaction between Smad3 and p300 and inhibits the expression of a liver fibrosis-inducing factor through elevation of proteasomal degradation of the transcriptional coactivator p300. Thus, the influence of the GPR119 ligand on the interaction between Smad2/Smad3 and p300 was examined.
# Subsequently, in the present invention, a mechanism for inhibiting the Smad-p300 interaction due to AMPK activation was investigated.
# [2] = tested on: cAMP/PKA (cyclic AMP/Protein kinase A); test: activation of GPR119 signaling pathway cAMP/PKA, with PKA inhibitor H-89; assay type: cell-based; conditions: FIG. 4a
# Description: First, when a PKA inhibitor H-89 was treated, a change in action of the GPR119 ligand was examined.
# [3] = 40 mg/kg, western blot, FIG. 3c
smiles,measurement,setting,value
"CCc1cnc(N2CCC(c3nc(COc4ccc(-n5cnnn5)cc4)cs3)CC2)nc1 [MBX-2982, 4-((4-(1H-tetrazol-1-yl)phenoxy)methyl)-2-(1-(5-ethylpyrimidin-2-yl)piperidin-4-yl)thiazole]",α-SMA expression (immunohistochemical staining) in liver tissue,"[1]; 40 mg/kg oral once a day 5 days a week, 3 weeks, FIG. 3a",significantly reduced
same,amount of hydroxyproline,"[1]; 40 mg/kg oral, FIG. 3b",statistically significantly reduced
same,expression of TGFβ protein in liver tissue,[1]; [3],statistically significantly inhibited
same,expression of collagen I protein in liver tissue,[1]; [3],statistically significantly inhibited
same,expression of α-SMA protein in liver tissue,[1]; [3],statistically significantly inhibited
same,ALT,[1]; CCl4 + MBX 20 (20 mg/kg oral),38.55 U/L
same,AST,[1]; CCl4 + MBX 20 (20 mg/kg oral),94.06 U/L
same,D-BIL,[1]; CCl4 + MBX 20 (20 mg/kg oral),0.11 mg/dL
same,T-BIL,[1]; CCl4 + MBX 20 (20 mg/kg oral),0.20 mg/dL
same,ALT,[1]; CCl4 + MBX 40 (40 mg/kg oral),32.06 U/L
same,AST,[1]; CCl4 + MBX 40 (40 mg/kg oral),68.11 U/L
same,D-BIL,[1]; CCl4 + MBX 40 (40 mg/kg oral),0.12 mg/dL
same,T-BIL,[1]; CCl4 + MBX 40 (40 mg/kg oral),0.23 mg/dL
same,Smad3 acetylation elevated by TGFβ1,"Smad3 and p300; LX-2, FIG. 4e",considerably inhibited
same,interaction between Smad3 and p300 elevated by TGFβ1,"Smad3 and p300; LX-2, FIG. 4e",considerably inhibited
same,binding of activated AMPK to p300,"Smad3 and p300; LX-2 treated with ligand alone, FIG. 4g",directly bound to p300
same,cAMP activation,[2],observed
same,action on inhibiting collagen I and TGFβ expression when PKA inhibitor H-89 was treated,[2]; with H-89,not offset
